Read-outs that look alike come from different tables or passages of the source.
How the values were obtained:
Assay type in all cases: cell-based
HTT mRNA = experiment: Splicing assay (RT-qPCR) monitoring HTT canonical junction (CJ) and alternative junction (AJ) mRNA isoforms
In short: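 A673 or K562 cells treated 24 h at 37 °C with an 11-point 3-fold dilution (top 10 uM final, DMSO ≤0.25%). Lysates assayed by one-step RT-qPCR for HTT CJ and AJ isoforms, normalized to GAPDH, GUSB (K562) or PPIA (A673).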

HTT CJ mRNA = experiment: Gene panel canonical junction qPCR assay, HTT; conditions: read-out: HTT IC50
In short: (§1)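 A673 or K562 cells were treated for 24 h at 37 °C with an 11-point 3-fold dilution, top dose 10 uM, DMSO ≤0.25%. Canonical junction mRNA in lysates was quantified by one-step RT-qPCR and normalized to GAPDH, GUSB or PPIA.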

SMN2 CJ mRNA = experiment: Gene panel canonical junction qPCR assay, SMN2; conditions: read-out: SMN2 IC50
In short: as §1

Target C CJ mRNA = experiment: Gene panel canonical junction qPCR assay, Target C; conditions: read-out: Target C IC50
In short: as §1

[1] = decrease in CJ mRNA (50% response), A673 or K562 cells, 24 h treatment, top dose 10 uM, read-out: HTT CJ AC50
[2] = increase in AJ mRNA (50% response), A673 or K562 cells, 24 h treatment, top dose 10 uM, read-out: HTT AJ AC50
[3] = decrease in CJ mRNA levels, gene panel

Compound	AC50 (HTT mRNA; [1])	AC50 (HTT mRNA; [2])	IC50 (HTT CJ mRNA; [3])	IC50 (SMN2 CJ mRNA; [3])	IC50 (Target C CJ mRNA; [3])	AC50 (HTT mRNA; 24 h, read-out: HTT AJ AC50 (nM))	AC50 (HTT mRNA; 24 h, read-out: HTT CJ AC50 (nM))	IC50 (HTT CJ mRNA)	IC50 (SMN2 CJ mRNA)	IC50 (Target C CJ mRNA)
Cc1cn2nc(-c3ccc4c(c3)CCN(C3CCNC3)C4=O)cc(C)c2n1 (stereo not shown) [Compound 269, 6-{2,8-dimethylimidazo[1,2-b]pyridazin-6-yl}-2-(pyrrolidin-3-yl)-3,4-dihydroisoquinolin-1-one]	> 10000 nM	> 10000 nM	> 10 µM	1 to 10 µM	> 10 µM					
Cn1cc2cc(-c3ccc4c(=O)n(C5CCNCC5)ncc4c3)cc(F)c2n1 [Compound 249]	1000 to 10000 nM	1000 to 10000 nM	1 to 10 µM	1 to 10 µM	1 to 10 µM					
Cc1cn2cc(-c3ccc4c(=O)n(C5CCN(C)CC5)cnc4c3)nc2c(C)n1 [Compound 302]	1000 to 10000 nM	1000 to 10000 nM	1 to 10 µM	0.1 to 1 µM	1 to 10 µM					
Cc1cn2nc(-c3ccc4c(c3)CCN(C3CCNC(C)(C)C3)C4=O)cc(C)c2n1 (stereo not shown) [Compound 267]	1000 to 10000 nM	100 to 1000 nM	1 to 10 µM	< 0.1 µM	1 to 10 µM					
CN1CCN(c2ccc3nc(-c4ccc5nn(C)cc5c4)[nH]c(=O)c3c2)CC1 [Compound 108, 2-(2-methyl-2H-indazol-5-yl)-6-(4-methylpiperazin-1-yl)quinazolin-4(3H)-one]	> 10000 nM	> 10000 nM	> 10 µM	1 to 10 µM	1 to 10 µM					
Cc1cn2cc(-n3cnc4cc(N5CCN(C)CC5)ccc4c3=O)cc(F)c2n1 [Compound 229, 3-(8-fluoro-2-methylimidazo[1,2-a]pyridin-6-yl)-7-(4-methylpiperazin-1-yl)quinazolin-4(3H)-one]	> 10000 nM	> 10000 nM	> 10 µM	> 10 µM	> 10 µM					
Cc1cn2cc(-c3ccc4c(=O)n(C5CCNCC5)cnc4c3)cc(F)c2n1 [Compound 205, 7-(8-fluoro-2-methylimidazo[1,2-a]pyridin-6-yl)-3-(piperidin-4-yl)quinazolin-4(3H)-one]	100 to 1000 nM	100 to 1000 nM	0.1 to 1 µM	< 0.1 µM	0.1 to 1 µM					
Cc1cn2cc(-c3ccc4c(=O)n(C5CCNCC5)ncc4c3)ncc2n1 [Compound 255]	1000 to 10000 nM	1000 to 10000 nM	1 to 10 µM	0.1 to 1 µM	> 10 µM					
Cc1cn2cc(-c3ccc4c(=O)n(C5CCNCC5)ncc4c3)cc(F)c2n1 [Compound 248, 6-[8-fluoro-2-methylimidazo[1,2-a]pyridin-6-yl]-2-(piperidin-4-yl)phthalazin-1-one]	< 100 nM	100 to 1000 nM	< 0.1 µM	< 0.1 µM	0.1 to 1 µM					
CN1CCC(Nc2ccc3c(=O)n(-c4ccc5nn(C)cc5c4)cnc3c2)CC1 [Compound 163, 3-(2-methyl-2H-indazol-5-yl)-7-((1-methylpiperidin-4-yl)amino)quinazolin-4(3H)-one]						> 10000 nM	> 10000 nM	> 10 µM	> 10 µM	> 10 µM
Cc1cn2cc(-c3ccc4c(=O)n(C5CCNCC5)ccc4c3)cc(F)c2n1 [Compound 276, 6-(8-fluoro-2-methylimidazo[1,2-a]pyridin-6-yl)-2-(piperidin-4-yl)isoquinolin-1(2H)-one]	< 100 nM	< 100 nM	< 0.1 µM	< 0.1 µM	< 0.1 µM					
Cc1cc(-c2ccc3c(c2)CCN(C2CCNCC2)C3=O)cc2cn(C)nc12 [Compound 219]	1000 to 10000 nM	1000 to 10000 nM	1 to 10 µM	< 0.1 µM	1 to 10 µM					
Cc1cn2cc(-c3ccc4c(=O)n(C5CCN(C)CC5)cnc4c3)ncc2n1 [Compound 308]	1000 to 10000 nM	1000 to 10000 nM	1 to 10 µM	0.1 to 1 µM	1 to 10 µM					
Cc1cn2nc(-c3ccc4c(=O)n(C5CCN(C)CC5)ncc4c3)cc(C)c2n1 [Compound 265]	< 100 nM	< 100 nM	< 0.1 µM	< 0.1 µM	0.1 to 1 µM					
Cc1cn2nc(-c3ccc4c(=O)n([C@@H]5CCN(C)[C@H](C)C5)ncc4c3)cc(C)c2n1 [Compound 277]	100 to 1000 nM	100 to 1000 nM	0.1 to 1 µM	< 0.1 µM	1 to 10 µM					
Cc1cn2cc(-c3ccc4c(=O)n(C5CCN(C)CC5)cnc4c3F)cc(F)c2n1 [Compound 227, 8-fluoro-7-(8-fluoro-2-methylimidazo[1,2-a]pyridin-6-yl)-3-(1-methylpiperidin-4-yl)quinazolin-4(3H)-one]	1000 to 10000 nM	1000 to 10000 nM	1 to 10 µM	0.1 to 1 µM	> 10 µM					

Compound	AC50 (HTT mRNA; [1])	AC50 (HTT mRNA; [2])	IC50 (HTT CJ mRNA; [3])	IC50 (SMN2 CJ mRNA; [3])	IC50 (Target C CJ mRNA; [3])	AC50 (HTT mRNA; 24 h, read-out: HTT AJ AC50 (nM))	AC50 (HTT mRNA; 24 h, read-out: HTT CJ AC50 (nM))	IC50 (HTT CJ mRNA)	IC50 (SMN2 CJ mRNA)	IC50 (Target C CJ mRNA)
Cc1cn2nc(-c3ccc4c(c3)CCN([C@@H]3CCN[C@H](C)C3)C4=O)cc(C)c2n1 [Compound 281]	1000 to 10000 nM	1000 to 10000 nM	1 to 10 µM	0.1 to 1 µM	1 to 10 µM					
Cc1nc2c(F)cc(-c3ccc4c(=O)n(C5CCNCC5)ncc4c3)cc2s1 [Compound 253]	1000 to 10000 nM	1000 to 10000 nM	1 to 10 µM	0.1 to 1 µM	1 to 10 µM					
Cc1cn2nc(-c3ccc4c(=O)n(C5CCN(C)CC5)cnc4c3)cc2c(C)n1 [Compound 303]	1000 to 10000 nM	1000 to 10000 nM	1 to 10 µM	0.1 to 1 µM	1 to 10 µM					
Cc1cc(-c2cc(F)c3c(=O)n(C4CCNCC4)cnc3c2)cc2cn(C)nc12 [Compound 232]	< 100 nM	< 100 nM	< 0.1 µM	< 0.1 µM	0.1 to 1 µM					
CN1C2C=C(c3ccc4c(=O)n(-c5ccc6nn(C)cc6c5)cnc4c3)CC1CC2 (stereo not shown) [Compound 161, 3-(2-methyl-2H-indazol-5-yl)-7-(8-methyl-8-azabicyclo[3.2.1]oct-2-en-3-yl)quinazolin-4(3H)-one]	> 10000 nM	> 10000 nM	> 10 µM	> 10 µM	> 10 µM					
Cc1cn2cc(-c3ccc4c(c3)CCN(C3CCNCC3)C4=O)cc(C)c2n1 [Compound 217]	1000 to 10000 nM	1000 to 10000 nM	1 to 10 µM	0.1 to 1 µM	> 10 µM					
Cc1cn2cc(-c3ccc4c(c3)CCN(C3CCNCC3)C4=O)cc(Cl)c2n1 [Compound 216]	1000 to 10000 nM	1000 to 10000 nM	1 to 10 µM	< 0.1 µM	1 to 10 µM					
Cc1cc(-c2ccc3c(=O)n(C4CCN(C)CC4)cnc3c2F)cc2cn(C)nc12 [Compound 235, 7-(2,7-dimethyl-2H-indazol-5-yl)-8-fluoro-3-(1-methylpiperidin-4-yl)quinazolin-4(3H)-one]	> 10000 nM	> 10000 nM	> 10 µM	0.1 to 1 µM	> 10 µM					
CN1CCC(n2cnc3cc(-c4ccc5nn(C)cc5c4)ccc3c2=O)CC1 [Compound 208, 7-(2-methyl-2H-indazol-5-yl)-3-(1-methylpiperidin-4-yl)quinazolin-4(3H)-one]	> 10000 nM	1000 to 10000 nM	> 10 µM	0.1 to 1 µM	> 10 µM					
Cc1cn2cc(-c3ccc4c(=O)n(C5CCNC(C)(C)C5)cnc4c3)cc(F)c2n1 (stereo not shown) [Compound 237, 3-(2,2-dimethylpiperidin-4-yl)-7-(8-fluoro-2-methylimidazo[1,2-a]pyridin-6-yl)quinazolin-4(3H)-one]	100 to 1000 nM	100 to 1000 nM	0.1 to 1 µM	< 0.1 µM	1 to 10 µM					
CC[C@@H]1C[C@H](n2ncc3cc(-c4cc(C)c5nc(C)cn5n4)ccc3c2=O)CCN1 [Compound 304, 6-{2,8-dimethylimidazo[1,2-b]pyridazin-6-yl}-2-[(2R,4R)-2-ethylpiperidin-4-yl]phthalazin-1-one]	1000 to 10000 nM	1000 to 10000 nM	0.1 to 1 µM	< 0.1 µM	1 to 10 µM					
Cn1cc2ccc(-c3ccc4c(=O)n(C5CCNCC5)ncc4c3)cc2n1 [Compound 263]	> 10000 nM	> 10000 nM	> 10 µM	> 10 µM	> 10 µM					
Cc1cn2cc(-c3cc(F)c4c(=O)n(C5CCNCC5)cnc4c3)cc(F)c2n1 [Compound 230, 5-fluoro-7-{8-fluoro-2-methylimidazo [1,2-a]pyridin-6-yl}-3-(piperidin-4-yl)quinazolin-4-one]	< 100 nM	< 100 nM	< 0.1 µM	< 0.1 µM	< 0.1 µM					
Cc1cc(-c2ccc3c(=O)n(C4CC(C)(C)NC(C)(C)C4)cnc3n2)cc2cn(C)nc12 [Compound 179]	> 10000 nM	> 10000 nM	> 10 µM	1 to 10 µM	> 10 µM					
Cc1nc2c(F)cc(-c3ccc4c(=O)n(C5CCNCC5)cnc4c3)cc2o1 [Compound 245]	100 to 1000 nM	100 to 1000 nM	0.1 to 1 µM	< 0.1 µM	0.1 to 1 µM					
CCN1CCC(n2ncc3cc(-c4cc(C)c5nc(C)cn5n4)ccc3c2=O)CC1 [Compound 266]	< 100 nM	< 100 nM	< 0.1 µM	< 0.1 µM	0.1 to 1 µM					

Source: US20230159496A1, “COMPOUNDS AND METHODS FOR MODULATING SPLICING” (REMIX THERAPEUTICS INC., priority 2020, published 2023)
